“And” between values parts separate entries of the source, which are not always exact repeats. Identical values can stand only once. Like-named read-outs stand apart in the source and are kept apart here.

Experimental findings from patent publication US20260055088A1, “HETEROCYCLIC COMPOUND, METHOD FOR PREPARING SAME, AND PHARMACEUTICAL USE THEREOF” (Jiangsu Hengrui Pharmaceuticals Co., Ltd., priority 2022, published 2026) are described below.

The nature of series [1]: Pharmacokinetic evaluation in C57 mice (i.g./i.v.). Format: in vivo. As to conditions: for Vd / AUC(0-t) / half-life / Cmax / bioavailability / CL/F: both sexes, mouse, plasma; for Vd: read-out: Apparent distribution volume Vss; for AUC(0-t): read-out: Area under curve AUC0-t; for half-life: read-out: Half-life T½ (converted); for Cmax: read-out: Plasma concentration Cmax; for bioavailability: oral, i.g. 2.0 mg/kg vs i.v. 1.0 mg/kg, read-out: Bioavailability F; for CL/F: read-out: Clearance rate CL/F; for Clearance rate CL/F: i.v. The procedure:
C57 mice were used as test animals. After intragastric (i.g.)/intravenous (i.v.) administration of the compounds of the present disclosure to C57 mice, the plasma concentrations of the compounds at different time points were determined by the LC/MS/MS method. The pharmacokinetic behaviors of the compounds of the present disclosure in C57 mice were studied, and their pharmacokinetic profiles were evaluated.
Compound 16 and compound 32.
Thirty-six C57 mice, with an equal number of males and females, provided by Vital River Laboratory Animal Technology Co., Ltd., with the production licenses SCXK (Zhejiang) 2019-0001 and SCXK (Beijing) 2019-0006. The mice were evenly divided into 4 groups of 9, with 3 mice per time point per group, and dosed by intragastric and intravenous administration.
Certain amounts of the test compounds were weighed out, and 5% DMSO+5% tween 80+90% normal saline was added to prepare 0.1 mg/mL colorless clear solutions (for the intragastric administration groups) and 0.1 mg/mL colorless clear solutions (for the intravenous administration groups).
The intragastric administration groups: The administration dose was 2.0 mg/kg, and the administration volume was 20 mL/kg.
The intravenous administration groups: The administration dose was 1.0 mg/kg, and the administration volume was 10 mL/kg.
The intragastric administration groups: 0.1-mL blood samples were collected from the orbit before administration and 0.25, 0.5, 1.0, 2.0, 4.0, 6.0, 8.0, 11.0, and 24.0 h after administration, placed into EDTA-K2 anticoagulation test tubes, and centrifuged at 10,000 rpm for 1 min (4° C.), and the plasma was separated within 1 h and stored at −80° C. before analysis. The procedures from the blood collection to the centrifugation were performed under ice-bath conditions.
The intravenous administration groups: Blood samples were collected before administration and 5 min and 0.25, 0.5, 1.0, 2.0, 4.0, 8.0, 11.0, and 24 h after administration and were treated in the same way as those collected from the intragastric administration groups.
Determination of the plasma concentrations of the test compounds in C57 mice after the compounds were administered at different concentrations: Compound 16: A 20-μL sample of the C57 mouse plasma collected at each time point after administration was taken, and 200 μL of acetonitrile containing 100 ng/mL camptothecin (internal standard) was added to each sample to precipitate protein. The mixture was vortexed for 5 min and centrifuged at 3700 rpm for 10 min. 50 μL of the supernatant was taken, and 100 μL of water was added. The mixture was vortexed for 5 min, and 1 μL of the mixture was taken for LC/MS/MS analysis. Compound 32: A 20-μL sample of the C57 mouse plasma collected at each time point after administration was taken, and 200 μL of acetonitrile containing verapamil (internal standard, 20 ng/mL) was added to each sample to precipitate protein. The mixture was vortexed for 5 min and centrifuged at 3700 rpm for 10 min. 90 μL of the supernatant was taken, and 90 μL of water was added. The mixture was vortexed for 5 min, and 0.1 μL of the mixture was taken for LC/MS/MS analysis.

The subject of series [2] is rat incision pain model. Kind of series: Analgesic efficacy in rat incision pain model (mechanical pain threshold). Format: in vivo, SD rats. As to conditions: i.g./one dose; for Pain threshold: rat incision pain model, 5 h after administration; for Percent increase in threshold: vs. vehicle control. The procedure: To evaluate the analgesic efficacy of the compounds of the present disclosure in inhibiting pain in rats of a rat incision pain model.
The compounds of Example 16 and Example 32.
Test animals: SD rats, purchased from Beijing Vital River Laboratory Animal Technology Co., Ltd. (license number: SCXK (Zhejiang) 2019-0001), weighing about 180 g on purchase.
Housing conditions: 5 animals/cage, a 12/12-hour light/dark cycle, a constant temperature of 23±1° C. with humidity at 50 to 60%, ad libitum access to food and water.
After acclimatization, the SD rats were grouped as follows:
(§1) Nine SD rats, weighing 170-190 g, were selected for this study. The mechanical pain threshold was measured using an electronic aesthesiometer. Then an incision pain surgery was performed. During the surgery, after the rats were anesthetized with Zoletil (Zoletil-50, 250 mg, diluted with normal saline to 50 mL after being dissolved, injected at a dose of 2 mL per 200 g of body weight), a 1 cm long incision was made in the middle of the plantar surface of the left hind paw using a No. 10 scalpel blade, cutting through the skin and fascia, and the incision was closed using 3-0 sterile silk sutures. The injured area was disinfected with penicillin, and the animals were returned to their original place to recover overnight. After the overnight recovery, oral gavage administration was performed. Five hours after administration (about 24 h after surgery), the mechanical pain threshold was measured using an electronic aesthesiometer.
Data were recorded using Excel statistical software: The averages were calculated using avg; the SD values were calculated using STDEV; the SEM values were calculated using STDEV/SQRT (the number of animals per group). Plotting was performed using GraphPad Prism software. Statistical analysis of the data was performed using one-way ANOVA and t-test.
Percent increase in threshold (%)=[(Gt−G0)/G0]×100(%), where Gt is the plantar pain threshold of the administration group, and G0 is the plantar pain threshold of the vehicle group.

The nature of series [3]: Effect on body weight in rat incision pain model. Format: in vivo, SD rats. The note with it: i.g./one dose. The procedure:
as §1
The analgesic efficacy of the compound of Example 16 in the rat incision pain model is shown in FIG. 3 and Table 7, and its effect on body weight is shown in FIG. 4. The analgesic efficacy of the compound of Example 32 in the rat incision pain model is shown in FIG. 5 and Table 7, and its effect on body weight is shown in FIG. 6.

In the case of `COc1c([C@H]2[C@H](C(=O)Nc3ccnc(/C(N)=N/O)c3)O[C@@](C)(C(F)(F)F)[C@H]2C)ccc(F)c1F` [Example 32], in series [1] (iv, 1.0 mg/kg), the Vd is 3.93 L/kg; the AUC(0-t) came out at 947 ng·h/mL; the half-life (in general, how long it takes for the measured level to halve) is 3.3 h; the Cmax came out at 616 ng/mL. The bioavailability – broadly, dose-corrected exposure relative to a reference, in per cent – in series [1] came out at 82.6%. For the same molecule, in series [1] (po, i.g., 2.0 mg/kg), the AUC(0-t) was determined as 1560 ng·h/mL, the CL/F is 21.2 mL/min/kg, the half-life is 3.2 h and the Cmax turned out to be 260 ng/mL. Besides, the “Clearance rate CL/F” value in series [1] (1.0 mg/kg) turned out to be 16.1 mL/min/kg. Moreover, in series [2] (30 mpk), the Pain threshold is 12.0 gf and 12.0 ± 0.9 gf; the “Percent increase in threshold” value was found to be 15%. In series [2] (100 mpk), the Pain threshold was 22.3 gf and 22.3 ± 1.3 gf; the “Percent increase in threshold” value was determined as 114%. In series [2] (200 mpk), the Pain threshold is 22.4 gf and 22.4 ± 2.5 gf; the “Percent increase in threshold” value came out at 114%. For the same molecule, the “Effect on body weight of rats” value in series [3] is on record as “did not influence the body weight of rats”.

Regarding `CO/N=C(\N)c1cc(NC(=O)[C@@H]2O[C@@](C)(C(F)(F)F)[C@@H](C)[C@H]2c2ccc(F)c(F)c2OC)ccn1` [Example 16], in series [1] (iv, 1.0 mg/kg), the Vd came out at 9.97 L/kg, the AUC(0-t) is 718 ng·h/mL, the half-life was 8.1 h and the Cmax is 377 ng/mL. For the same molecule, the bioavailability in series [1] stood at 87.2%. Moreover, in series [1] (po, i.g., 2.0 mg/kg), the AUC(0-t) amounted to 1250 ng·h/mL, the CL/F turned out to be 24.4 mL/min/kg, the half-life was 7.5 h and the Cmax is 266 ng/mL. Moreover, in series [1] (1.0 mg/kg), the “Clearance rate CL/F” value was found to be 21.1 mL/min/kg. Further, in series [2] (50 mpk), the Pain threshold is 10.8 gf and 10.8 ± 0.5 gf; the “Percent increase in threshold” value came to 7%. In addition, in series [2] (100 mpk), the Pain threshold is 14.9 gf and 14.9 ± 1.5 gf; the “Percent increase in threshold” value is reported as 49%. In series [2] (200 mpk), the Pain threshold was 22.3 gf and 22.3 ± 1.8 gf; the “Percent increase in threshold” value was 122%. In addition, the “Effect on body weight of rats” value in series [3] is listed as “did not influence the body weight of rats”.
